Data from the NIST ThermoML archive (doi:10.1016/j.fluid.2010.05.001).

Key:
[1] = 101.33 kPa, Liquid, Vibrating tube method
[2] = xn = mol fraction of the nth substance listed; details: 101 kPa, Liquid, Vibrating tube method

CN1CCCCC1 [N-methylpiperidine]
[1]
Details | mass density [kg/m3] | molar volume [m3/mol]
288.15 K | 822.237 | 0.0001206
298.15 K | 810.887 | 0.0001223
308.15 K | 803.846 | 0.0001234
318.15 K | 796.931 | 0.0001244
328.15 K | 785.64 | 0.0001262
338.15 K | 781.618 | 0.0001269

CN1CCCCC1 [N-methylpiperidine] + O
[2]
Details | mass density [kg/m3]
288.15 K, x1 = 0.0101 | 994.829
288.15 K, x1 = 0.0728 | 966.82
288.15 K, x1 = 0.0971 | 957.332
288.15 K, x1 = 0.1499 | 939.294
288.15 K, x1 = 0.2452 | 913.306
288.15 K, x1 = 0.3359 | 895.82
288.15 K, x1 = 0.3895 | 886.349
288.15 K, x1 = 0.55 | 863.074
288.15 K, x1 = 0.66 | 850.384
288.15 K, x1 = 0.7 | 846.317
288.15 K, x1 = 0.8 | 836.071
288.15 K, x1 = 0.9 | 828.075
298.15 K, x1 = 0.0133 | 990.926
298.15 K, x1 = 0.0248 | 985.215
298.15 K, x1 = 0.0299 | 982.27
298.15 K, x1 = 0.0728 | 960.309
298.15 K, x1 = 0.0971 | 949.172
298.15 K, x1 = 0.19 | 917.46
298.15 K, x1 = 0.2452 | 903.811
298.15 K, x1 = 0.3359 | 884.947
298.15 K, x1 = 0.4036 | 873.347
298.15 K, x1 = 0.453 | 865.779
298.15 K, x1 = 0.4767 | 862.238
298.15 K, x1 = 0.505 | 858.158
298.15 K, x1 = 0.595 | 846.184
298.15 K, x1 = 0.6987 | 835.141
298.15 K, x1 = 0.7907 | 826.047
298.15 K, x1 = 0.8822 | 819.375
308.15 K, x1 = 0.0133 | 987.229
308.15 K, x1 = 0.0153 | 986.286
308.15 K, x1 = 0.0248 | 980.469
308.15 K, x1 = 0.0299 | 976.97
308.15 K, x1 = 0.0728 | 952.068
308.15 K, x1 = 0.0971 | 941.377
308.15 K, x1 = 0.1972 | 908.857
308.15 K, x1 = 0.391 | 866.58
308.15 K, x1 = 0.4972 | 849.931
308.15 K, x1 = 0.57 | 840.165
308.15 K, x1 = 0.6987 | 825.724
308.15 K, x1 = 0.78 | 818.342
318.15 K, x1 = 0.00418 | 987.683
318.15 K, x1 = 0.00896 | 985.125
318.15 K, x1 = 0.0153 | 981.488
318.15 K, x1 = 0.018 | 979.939
318.15 K, x1 = 0.02 | 978.288
318.15 K, x1 = 0.15 | 912.237
318.15 K, x1 = 0.1972 | 896.689
318.15 K, x1 = 0.3 | 874.067
318.15 K, x1 = 0.4972 | 840.492
318.15 K, x1 = 0.66 | 821.213
318.15 K, x1 = 0.85 | 804
328.15 K, x1 = 0.00418 | 983.308
328.15 K, x1 = 0.00896 | 980.507
328.15 K, x1 = 0.01 | 979.617
328.15 K, x1 = 0.0133 | 977.934
328.15 K, x1 = 0.3823 | 848.444
328.15 K, x1 = 0.545 | 824.697
328.15 K, x1 = 0.7049 | 807.305
328.15 K, x1 = 0.795 | 800.206
328.15 K, x1 = 0.945 | 790.511
